Assay results from patent publication US10544167B2, “Compounds as stimuli-responsive probes, methods and applications thereof” (JAWAHARLAL NEHRU CENTRE FOR ADVANCED SCIENTIFIC RESEARCH, priority 2015, dated 2020).

What was measured:
H2O2 in HeLa cells [1] = experiment: H2O2 detection after genotoxic stress (BrdU/doxorubicin) in HeLa cells, fluorescence plate reader; type: cell-based, Human; conditions: for fold increase in fluorescence compared to control cells: BrdU (100 μM), about 48 hours
Method: (§1) The cells are incubated with QCy-BA (5 μM) for 30 minutes in dark, washed with PBS and analysed to detect QCy-BA dye fluorescence using Infinite M1000 Pro, Tecan, Austria). Wavelengths used for excitation and emission for QCy-BA dye is 400 nm/650 nm. In all ROS measurement assays are done using plate reader and after fluorescence measurements, cells are washed, trypsinized and counted to estimate fluorescence per cell recordings.
To measure ROS generated concomitant to the dose of the DNA damage, HeLa cells are treated with increasing doses (0 to 200 μM) of 5-bromo-2′-deoxyuridine (BrdU). BrdU is a thymidine analog, which gets directly incorporated into DNA and triggers DNA damage response. From previous studies in the art it is known that 48 hours of treatment with BrdU (100 μM) or another DNA damaging agent, doxorubicin at a concentration of 0.1 μM can lead to the induction of cellular senescence.

HeLa cells = experiment: Cytotoxicity on HeLa cells (MTT assay); type: cell-based, Human
Method: MTT [(3-(4,5-dimethylthiozol-2yl)-2,5-diphenyltetrazolium bromide] assay is carried out with probe QCy-BA on HeLa cells to determine the cytotoxicity effect. In a tissue cultured 96-well plate, 10,000 cells per well are plated and incubated for 24 h, for cells to attach. After completion of 24 h incubation, the attached and healthy cells are treated with various concentrations (25 μM, 12.5 μM, 6.25 μM, 3.125 μM and 0 μM) of probe QCy-BA and further incubated for 24 h. All the treatments are carried out in triplicates. The required concentrations of QCy-BA are made from stock solution in 0.2% DMEM. Stock solution of probe QCy-BA (1 mg/mL) is made in water. Four hours before stipulated time of experiment, MTT-solution (5 mg/mL of 20 μL) is added in each well and incubated to form formazan crystals. The culture medium is completely removed by 1 mL pipette and 200 μL of DMSO is added to dissolve formazan crystals. The purple colored formazan is estimated by determining absorbance at 590 nm with the help of spectrophotometer (Bio-RAD model 1680, Microplate reader). The results are shown in bar graphs (concentration of QCy-BA vs % cell viability).
In order to check the cytotoxicity of probe QCy-BA cell viability assay is performed in HeLa cells. Upon incubation with QCy-BA, more than 80% of the cells are viable even at 25 μM concentration after about 24 hours (FIG. 15).

[2] = test system: H2O2 produced by EGF/Nox pathway in HeLa cells; experiment: EGF produced H2O2 detection in HeLa cells by flow cytometry (FACS); type: cell-based, Human; conditions: EGF 500 ng/mL about 40 minutes, QCy-BA 5 μM 30 minutes
Method: To determine the EGF produced ROS in cells by QCy-BA. In a 12-well plate, […] HeLa cells are plated in each well and incubated for 24 hour. These cells are serum deprived for 1 h. Cells are incubated with EGF (500 ng/mL) for 40 minutes and further treated with NAC (8 mM) for 1 hour. Then cells are treated with QCy-BA (5 μM) for 30 minutes. After 30 minutes incubation of cells with QCy-BA, cells are washed with DPBS (Dulbecco's Phosphate Buffer Saline) to remove the excesses of QCy-BA. These cells are harvested after trypsinization. The samples are subjected to FACS.
Further, the study is extended to visualize the in situ H2O2 generation by a known signaling pathway in live cells. Well-known epidermal growth factor (EGF) binding to epidermal growth factor receptor (EGFR) signaling pathway is selected, which stimulates the production of H2O2 in cells by activating the NOX/PI3K pathways. In this experiment, live HeLa cells are incubated with the epidermal growth factor (EGF) (500 ng/mL) for about 40 minutes under physiological conditions (37° C., pH=7.4).

[3] = Detection limit of H2O2 in presence of QCy-BA (concentration-dependent fluorescence, microplate reader); conditions: QCy-BA 5 μM, PBS buffer, excitation 400 nm, 3σ/slope
Method: Concentration dependent studies are performed using microplate reader. In the well-plates, first QCy-BA (5 μM) in buffer solution is taken, then increasing concentration of H2O2 from 0 to 100 μM is added. Upon excitation at 400 nm, the emission at […] as function time after addition of H2O2 is collected. The fluorescence intensity at […] is plotted as a function of concentration of hydrogen peroxide and each experiment is done in triplicates.
Further, concentration-dependent fluorescence study on slicing of the phenyl boronic acid functionality of QCy-BA (5 μM) in response to sequential addition of H2O2 (5 to 100 μM) is performed. The fluorescence intensity of QCy-BA at 565 nm is decreased in response to added H2O2 in the concentration range of 5 to 50 μM and subsequently reached saturation at 100 μM. A linear relationship (R^2=0.9877) is observed with increasing concentration of H2O2 in the concentration range of 5-50 JAM. Based on 3a/slope the limit of detection (LOD) of H2O2, using the decrease in fluorescence of QCy-BA at 565 nm, is found to be 5.3 μM (FIG. 7). H2O2 is one of the many ROS present in the biological system and it is necessary to test the probe QCy-BA against all of them to assess the selectivity and specificity. […]

H2O2 in MRC5 cells = experiment: H2O2 detection after genotoxic stress (BrdU/doxorubicin) in primary MRC5 cells, fluorescence plate reader; type: cell-based, human; conditions: MRC5, various doses of BrdU and doxorubicin 0.1 μM, 72 h; probe 5 μM
Method: as §1
Further, similar experiments are performed in primary MRC5 cells, which are human lung primary fibroblasts. To induce DNA damage, MRC5 cells are similarly treated with various doses of BrdU and doxorubicin (0.1 μM) for 72 h. […] Therefore, above results reveal that QCy-BA is a versatile probe to monitor the elevated levels of H2O2 in both primary and cancer cells in senescence state.

H2O2 in HeLa cells [4] = experiment: Confocal fluorescence imaging of HeLa cells treated with exogenous H2O2; type: cell-based, Human; conditions: QCy-BA 5 μM 30 minutes, then H2O2 100 μM about 15 minutes
Method: An Immunofluorescence studies are carried out on HeLa cells to validate exogenous and endogenous detection of H2O2 by QCy-BA. The HeLa cells (10,000 cells) are grown on cover slips. These cells are treated with 5 μM concentration of QCy-BA for 30 minutes. The cells are washed with DPBS for several times to remove the excesses of QCy-BA. The cells are treated with H2O2 (100 μM) for 30 minutes. These samples are subjected to confocal microscopy for immunefluorescence images.
Remarkable selectivity of QCy-BA towards H2O2 and its detection through DNA-assisted switch-on NIR fluorescence led to evaluation of the uptake and application of the probe to detect H2O2 in cells. For this purpose, confocal fluorescence imaging of HeLa cells treated with H2O2 (exogenous) is carried out. First, the HeLa cells are incubated with QCy-BA (5 μM) for about 30 minutes and imaged under a confocal microscope. […] HeLa cells containing QCy-BA are then treated with H2O2 (100 μM) for about 15 minutes, after which the cells are again scanned under a confocal microscope.

[5] = Time-dependent NMR analysis of H2O2 triggered slicing of phenyl boronic acid of QCy-BA; conditions: QCy-BA 2 mM in D2O, H2O2 10 mM, 1H NMR
Method: In a preliminary study, time-dependent NMR spectroscopy analysis of QCy-BA is carried out in the presence of H2O2 to assess the stimuli-responsive slicing of phenyl boronic acid functionality (FIG. 1(a)).
The chemical shifts of O—CH2, aromatic region of QCy-BA and appearance of possible new peaks for p-quinonemethide (sliced byproduct corresponding to phenyl boronic acid functionality) upon sequential addition of H2O2 is monitored. […] The peaks at 5.20 ppm and aromatic region 6.5-7.0 ppm correspond to the newly-formed exocyclic C—Hb protons of p-quinone-methide and QCy-DT moieties, respectively. After about 2 hours, a single peak at 5.20 ppm and prominent new peaks at 6.5-7.0 ppm are observed, indicating the complete conversion of QCy-BA to QCy-DT and p-quinonemethide (FIG. 1(b)). This study confirmed the H2O2 stimulus-triggered slicing of phenyl boronic acid functionality of QCy-BA to release QCy-DT, a DNA minor groove binding probe. It is observed that the color of the solution changes from yellow to brown after the addition of H2O2 to QCy-BA, a naked eye detection of the formation of p-quinone-methide and QCy-DT (FIG. 1(c)).

[6] = Fluorescence response of QCy-BA to various reactive oxygen species (selectivity); conditions: QCy-BA 5 μM; superoxide, hydroxyl radical, tert-butoxy radical, hypochlorite, 100 μM each
Method: Further, concentration-dependent fluorescence study on slicing of the phenyl boronic acid functionality of QCy-BA (5 μM) in response to sequential addition of H2O2 (5 to 100 μM) is performed. The fluorescence intensity of QCy-BA at 565 nm is decreased in response to added H2O2 in the concentration range of 5 to 50 μM and subsequently reached saturation at 100 μM. A linear relationship (R^2=0.9877) is observed with increasing concentration of H2O2 in the concentration range of 5-50 JAM. Based on 3a/slope the limit of detection (LOD) of H2O2, using the decrease in fluorescence of QCy-BA at 565 nm, is found to be 5.3 μM (FIG. 7). H2O2 is one of the many ROS present in the biological system and it is necessary to test the probe QCy-BA against all of them to assess the selectivity and specificity. Therefore, the response of QCy-BA towards H2O2 (100 μM) in the presence of other ROS (100 μM) is examined, including tertbutyl hydroperoxide (TBHP), superoxide (O2^−), hydroxyl radical (HO.), tert-butoxy radical (^tBuO.) and hypochlorite (OCl^−).

H2O2 in HeLa cells [7] = experiment: Exogenous and endogenous detection of H2O2 in HeLa cells by flow cytometry (FACS); type: cell-based, Human; conditions: probe about 5 μM, about 30 minutes, absence of NAC
Method: In each well, […] cells are plated in 12-well tissue culture plates and incubated for 24 hours. These cells are serum deprived for 1 h. In addition, the serum deprived cells of 6-well are treated with N-acetyl-L-cysteine (NAC) (8 mM) solution and incubated for 1 hour and cells are treated with probe QCy-BA (5 μM) and incubated for 30 minutes. After 30 minutes incubation, the cells are washed with DPBS (Dulbecco's Phosphate buffer saline) to remove the excesses of QCy-BA. These cells are harvested after trypsinization. Exogenously, H2O2 (100 μM) is added to QCy-BA and NAC+QCy-BA treated cells and incubated for 15 min. These samples are subjected to FACS analysis.
NMR, photophysical study. […] Next. QCy-BA for probing cellular (physiologically generated) H2O2 levels in live cells is employed. HeLa cells are incubated with QCy-BA (about 5 μM) for about 30 minutes in the absence and presence of N-acetyl-L-cysteine (NAC), a well-known H2O2 scavenger. […] Thus, probe QCy-BA is also capable of detecting the cellular H2O2 levels in live cells.

[8] = Time-dependent fluorescence study of release kinetics of QCy-BA to QCy-DT in response to H2O2 in presence of Drew-AT; conditions: QCy-BA 2 μM, Drew-AT 2 μM
Method: The time-dependent fluorescence study is carried out to evaluate the release kinetics of QCy-BA (2 μM) to QCy-DT in response to H2O2 (100 μM) stimulus, in presence of Drew-AT duplex. The change in fluorescence intensities at […] and 650 nm corresponding to emission maxima (Emax) of QCy-BA and QCy-DT in presence of Drew-AT is monitored.
The calculation of kinetics parameter using pseudo-first-order conditions for conversion of QCy-BA (2 μM) to QCy-DT in the presence of H2O2 (1 mM) and Drew-AT (2 μM) gave the rate constant of kobs=1.0×10^−3 s^−1 (FIG. 10).

| SMILES | fold change of fluorescence (summary for DCFDA) (H2O2 in HeLa cells [1]; BrdU 100 μM and doxorubicin 0.1 μM, 48 h) | fold increase in fluorescence compared to control cells (H2O2 in HeLa cells [1]) [fold] | viable cells (HeLa cells; 25 μM, about 24 hours) | toxicity (in words) (HeLa cells; standard working concentration about 5 μM, 24 hours) | fluorescence intensity in the PerCP region after EGF stimulation [2] | limit of detection (LOD) of H2O2, using the decrease in fluorescence of QCy-BA at 565 nm [3] [µM] | fluorescence compared to control cells (H2O2 in MRC5 cells) | fluorescence in HeLa cells after H2O2 (H2O2 in HeLa cells [4]) | time to complete conversion of QCy-BA to QCy-DT and p-quinonemethide [5] | effect of other ROS on the probe response (fluorescence at 565 nm) [6] | mean fluorescence intensity of PerCP compared to control cells (H2O2 in HeLa cells [7]) | time to saturation of emission intensity at 650 nm ([8]; H2O2 100 μM, excitation 564 nm) [h] | rate constant kobs for conversion of QCy-BA to QCy-DT ([8]; pseudo-first-order, H2O2 1 mM, emission 650 nm) [s⁻¹] |
| --- | --- | --- | --- | --- | --- | --- | --- | --- | --- | --- | --- | --- | --- |
| CC(=O)Oc1cc2c(cc1Cl)C(c1ccccc1C(=O)O)c1cc(Cl)c(OC(C)=O)cc1O2 [DCFDA, 2′,7′-dichlorofluorescin diacetate] | 3-4 fold | 3 |  |  |  |  |  |  |  |  |  |  |  |
| C[n+]1c(/C=C/c2ccc(OCc3ccc(B(O)O)cc3)c(/C=C/c3sc4ccccc4[n+]3C)c2)sc2ccccc21.[I-].[I-] [QCy-BA, 4-((N, N-dimethyl, 2,4-bis((E)-2-(benzo[d]thiazol-2-ylinium)vinyl)phenoxy)methyl)phenylboronic acid] |  | ~10 | more than 80% | non-toxicity | strong fluorescence intensity | 5.3 | increase in fluorescence compared to control cells in a dose-dependent manner | strong fluorescence in the red channel with maximum localization in the cell nucleus | about 2 hours | very minimal or no effect | increase in mean fluorescence intensity of PerCP | ≥ 4 | 0.001 |
